In patent publication US20120070476A1, “Compositions and Methods for Inactivation of Pathogens at Genital Tract Surfaces” (priority 2009, published 2012):

Columns and labels:
BV-associated organisms = assay: Survival of BV-associated organisms after 2-hour exposure to racemic lactic acid; type: cell-based, Eighteen BV-associated organisms; conditions: pH 4.5, between 10 and 100 mM (~0.1-1%) lactic acid, 37° C., versus pH 4.5 without lactic acid
Description: (§1) Eighteen BV-associated organisms, and four lactobacillus strains obtained from the American Type Culture Collection, Rockville Md., were grown in appropriate growth medium and incubation conditions, and exposed to a 2-hour further incubation at 37° C. in media at pH 7 without lactic acid, or at pH 4.5 with racemic lactic acid concentrations ranging from zero to 550 mM (5%). The number of organisms surviving exposure to these conditions is plotted in FIG. 4. BV-associated organisms are plotted with solid lines.

lactobacilli = assay: Survival of lactobacillus strains after 2-hour exposure to lactic acid; type: cell-based, four lactobacillus strains
Description: as §1

[1] = system: Herpes simplex virus type 2 (HSV-2); assay: Inactivation of cell-free HSV-2 by acidified exposure media, titred on Elvis cells; type: cell-based; conditions: 0.1% acid, pH 3.8, 30 minutes, 37° C.
Description: The effect of low pH alone, and low pH in the presence of racemic lactic acid, L-lactic acid, and D-lactic acid on the survival of Herpes simplex virus type 2 (HSV-2) was assessed. Cell-free HSV-2 (ATCC VR-734™ strain 9, American Type Culture Collection, Manassas, Va.) was aliquoted, stored at −80° C., and thawed immediately before its use. Elvis™ (Enzyme-linked Virus Inducible System™) cells (Diagnostic Hybrids, Athens Ohio) were supplied growing in flat-bottomed, 96-well microplates. Each plate was kept in a humidified incubator (5% CO2, 37° C.) until the cells were between 75% and 95% confluent. The supplier's original growth medium was replaced with fresh, pre-warmed tissue culture re-feeding medium (Trinity Biotech USA, Jamestown, N.Y.) several hours before the microplate was used in an experiment.
Viral exposure media were prepared by adding 0.1% D,L-lactic acid (Sigma-Aldrich, St. Louis, Mo.), D-lactic acid (Bachem Bioscience Inc., King of Prussia, Pa.), L-lactic acid, (Sigma-Aldrich, St. Louis, Mo.), acetic acid (Sigma-Aldrich) or no acid to 0.9% NaCl in deionized water. The pH of the solutions was measured and adjusted as necessary before, during, and after the experiments using an MI-410 combination pH electrode (Microelectrodes Inc., Bedford, N.H.) to pH 3.8 for all of the organic acid-containing viral exposure media. Two viral exposure media not containing an organic acid were adjusted to pH 3.8 with HCl, or to pH 7.4 with dilute NaOH. Freshly thawed viral stock was diluted 1:10 with viral exposure media and incubated for 30 minutes at 37° C. At the end of the incubation, all media were diluted ten-fold with re-feeding medium to rapidly neutralize the acidity of those media that were acidic. Three-fold serial dilutions were then made with the same growth medium. Each dilution of virus was then inoculated into two replicate wells on a microplate of Elvis™ cells. The microplate was spun at […], 25° C. for 25 minutes and incubated in a humidified incubator (5% CO2, 37° C.) for 16-24 hours. The growth medium was removed from the microplate wells, and the Elvis™ cells were fixed and stained according to the manufacturer's instructions. The microplate wells were examined on an inverted microscope for the presence of blue-stained cells, indicating viral infection.

[2] = system: Herpes simplex virus type-1 (HSV-1); assay: Inactivation of HSV-1 (KOS strain) by acidified exposure media; type: cell-based; conditions: 0.1%, pH 3.8, 30-minute exposure
[3] = system: M. mulieris, M. curtisii, Mycoplasma hominus; assay: Inactivation of three BV-associated organisms by L-lactic acid; type: cell-based, Mobiluncus mulieris, Mobiluncus curtisii; conditions: pH 4.5, 2-hour, 37° C.
Description: as §1

Description for HeLa cells: The toxicity of D-lactic acid and of L-lactic acid were assessed on tissue culture monolayers using a well known cell viability assay. HeLa cells (ATCC CCL-2, a cell line derived from a cervical epithelial cancer) were grown in 96-well tissue culture plates to approximately 90% confluence in DMEM medium supplemented with 3% fetal bovine serum. Medium was removed from the wells, and replaced by the same medium now containing D- or L-lactic acid between concentrations of 0% and 1% (w/v). The plates were incubated for 30 minutes at 37° C. and 5% CO2. The wells were washed three times with 0.9% saline, and then 20 microliters of a tetrazolium viability stain (Promega CellTiter 9603 One Solution) was added. After 1 hour, the absorbance of the fluid in the wells was read with a spectrophotometer at a wavelength of 575 nanometers.

CC(O)C(=O)O (racemic) [racemic lactic acid, D,L-lactic acid, reference compound]
Inactivation of BV-associated organisms (in words) (BV-associated organisms): dramatically increased
Survival of lactobacilli (in words) (lactobacilli; pH 4.5, highest concentration tested (5% or ~550 millimolar), 2-hour, 37° C.): survived unaltered

C[C@@H](O)C(=O)O [D-lactic acid, reference compound]
HSV-2 inactivation beyond low pH without organic acids (in words) [1]: further reduced HSV-2 viability

C[C@H](O)C(=O)O [L-lactic acid]
HSV-2 inactivation beyond low pH without organic acids (in words) [1]: further reduced HSV-2 viability
reduction of HSV-2 viability, more than low pH with D-lactic acid [1]: approximately 5 fold
reduction of HSV-2 viability, more than low pH without lactic acid [1]: approximately 11 fold
HSV-1 inactivation, greater than D-lactic acid at pH 3.8 [2]: approximately 10 fold
HSV-1 inactivation, more than at pH 3.8 without lactic acid [2]: ~25 fold
HSV-1 inactivation, more than the control at pH 7.4 without lactic acid [2]: approximately 80 fold
concentration not harmful to lactobacilli (lactobacilli; pH 4.5, inferred from 550 mM racemic lactic acid being 50% L-lactic acid): up to 280 mM
Inactivation of all three organisms at pH 4.5 with L-lactic acid versus pH 4.5 without lactic acid (in words) [3]: substantially greater
shift of dose-response for cellular cytotoxicity relative to D-lactic acid (HeLa cells): more than 500 fold

CC(=O)O [acetic acid, reference compound]
HSV-2 inactivation beyond low pH without organic acids (in words) [1]: did not increase the degree of inactivation
